{
  "source": "patent US20120302636A1",
  "about": "“METHOD OF TREATING A DISORDER ASSOCIATED WITH MTP” (priority 2009, published 2012)",
  "key": {"[1]": {"test": "Example 6: pharmacokinetics", "format": "in vivo, human", "settings": "5 to 20 mg QD and BID, healthy males; generally BLQ", "description": "(§1) Originally, the study was planned as 4 sequential cohorts of healthy male Caucasian subjects (Cohorts 1 to 4) followed by a cohort of male Caucasian patients with elevated triglycerides (HTG patients, Cohort 5). An additional cohort of healthy male Caucasian subjects (Cohort 4.1) was enrolled into the study (6 cohorts in total). The cohorts were as follows: Cohorts 1 to 4.1 had healthy Caucasian males, aged 18-45 years with a body weight of 60-100 kg and body mass index (BMI) between 19-28 kg/m^2 at screening and fasting triglycerides less than 1.69 mmol/L (less than 150 mg/dL) at the screening visit and Day-3. Cohort 5 had Caucasian males, aged 18-50 years with a body weight of 60-115 kg and BMI less than 35 kg/m^2 at screening and with elevated fasting triglycerides (TG≧1.69 mmol/L and <5.62 mmol/L; ≧150 mg/dL and <500 mg/dL) at the screening visit and Day-3.\n(§2) The planned treatment for Cohorts 1 to 4 was twice daily administration of 5 mg, 10 mg or 15 mg the compound of formula (I)/placebo, or once daily administration of 30 mg the compound of formula (1)/placebo. […] As only the compound of formula (I) 5 mg capsules were supplied for this study, doses were administered once daily to determine the maximum tolerated dose, and the planned doses for each subsequent cohort were amended based on the safety and tolerability data obtained from the preceding cohort. The dose level and dosing schedule planned for the patients in Cohort 5 was determined by the maximum tolerated dose and dosing schedule as reported from the planned Cohorts 1 to 4.1.\n(§3) Twelve healthy male Caucasian subjects were enrolled in each of Cohorts 1 to 4.1; dose cohorts were randomized in a ratio 9:3 to receive the compound of formula (I) or placebo, respectively, at the dose level associated with that cohort. Twelve male Caucasian patients with elevated triglycerides were randomized in a ratio of 8:4 to receive the compound of formula (I) or placebo, respectively, at the maximum tolerated dose level and dosing schedule."}, "serum lipid levels": {"test_system": "serum lipid levels", "test": "Example 6: serum lipid levels / pharmacodynamics", "format": "in vivo, human", "description": "as §1, §2, §3"}, "[2]": {"test": "Example 6: ascending dose study in healthy males and HTG patients, safety", "format": "in vivo", "description": "as §1, §2, §3\nThis study was conducted to investigate the safety and tolerability of the compound of formula (I) and to determine the pharmacokinetic and pharmacodynamic profiles of the compound of formula (I) administered, either once or twice a day, for 14 days to healthy non-fasting male Caucasian subjects and male Caucasian HTG patients. The planned treatment for Cohorts 1 to 4 was twice daily administration of 5 mg, 10 mg or 15 mg the compound of formula (I)/placebo, or once daily administration of 30 mg the compound of formula (I)/placebo. […] Consequently, doses were administered once daily to healthy volunteers, and the planned doses for each subsequent cohort were amended based on the safety and tolerability data obtained from the preceding cohort."}, "[3]": {"test": "Example 5: pharmacokinetics", "format": "in vivo, human", "settings": "subjects other than two", "description": "Fifty-two Japanese patients with hyperlipidemia (LDL-C between 140 and 220 mg/dL; TG≦400 mg/dL) participated in the study. […] One group received a fixed dose of 2 mg per tablet through the entire study. The other group received escalating doses of 0.5 mg (weeks 1-4), 1 mg (weeks 5-8), and 2 mg (weeks 9-12). For the efficacy analysis, 50 subjects were observed (25 in the fixed-dose group and 25 in the dose escalation group).\nThe objective of this study was preliminary evaluation of the efficacy (based on serum lipid levels), safety, and pharmacokinetics of the compound of formula (I) administered orally twice daily after breakfast and supper for 12 weeks as a fixed dose (4 mg/day) or escalating dose (1 mg/day, 2 mg/day and 4 mg/day) regimen in patients with hyperlipidemia."}, "[4]": {"test": "Example 8: 12-week study in obese subjects, efficacy", "settings": "for mean change from baseline to EOT in body weight: 12 weeks", "source_text": "This example involved a clinical study of the compound of formula (I), which was a randomized, double-blind, placebo-controlled, parallel group study to evaluate the efficacy of the compound of formula (I) administered twice daily for twelve weeks in obese subjects.\nThe study had 180 participants. The 180 subjects comprised 59 males and 121 females, 18 to 65 years old, with BMI≧30 kg/m^2 to <40 kg/m^2. The subjects were separated into four arms of 45 subjects, including one arm as placebo. Each test subject received a tablet taken orally over a period of 12 weeks after breakfast and dinner (BID) (specifically, within 180 minutes of the commencement of eating) of 1 mg, 2.5 mg, or 3.5 mg, using one or multiples of tablets of 1 mg and 2.5 mg of the compound of formula (I) to achieve the total dose. Of the total entrants, 40 entrants completed the 1 mg regimen, 42 entrants completed the 2.5 mg regimen, 41 entrants completed the 3.5 mg regimen, and 42 entrants completed the placebo regimen.\nThis study was designed to investigate the weight loss effect of the compound of formula (I) administered BID for 12 weeks to obese subjects. The effect of the compound of formula (I) on ancillary efficacy measures (e.g., waist circumference, waist-hip ratio, percent body fat, serum lipid parameters, and markers related to glycemic control, obesity, and inflammation) was also evaluated, as was safety. The primary efficacy variable was body weight change from baseline after 12 weeks of treatment."}, "[5]": {"test": "Earlier phase 1 single dose clinical study", "format": "in vivo, human"}, "[6]": {"test": "Example 9: caloric/food intake and appetite", "format": "in vivo, human", "settings": "3.5 mg BID, Day 10/11", "description": "The study enrolled 16 obese male subjects (18-65 years of age (inclusive), with a body mass index (BMI) >30.0 kg/m^2 and <40.0 kg/m^2) who participated in two treatment periods. During Period 1, 8 subjects were randomized to receive 3.5 mg of the compound of formula (I), and 8 subjects were randomized to receive placebo. The compound of formula (I) or placebo was administered twice daily (BID), 30 minutes after the start of breakfast and dinner, for 10 days. All subjects were discharged from the clinic at the end of Period 1 for a 9±2 day discharge period. Subjects then returned for treatment during Period 2, in which (i) the group previously receiving the compound of formula (I) now received placebo, and (ii) the group previously receiving placebo now received the compound of formula (I), in accordance with the protocol described above.\nA secondary objective of this study was to examine the effects on caloric/food intake and appetite. Therefore, other secondary PD endpoints in this study included caloric intake and meal weight consumed on Day 10 of each period, as well as visual analog scale (VAS) assessments of hunger, prospective consumption, and fullness on Day 10/11 of each period. VAS assessments of thirst and nausea on Day 10/11 of each period were part of the exploratory analysis."}},
  "note": "“Also recorded” adds a separate entry of the source.",
  "data": [
    {"smiles": "CCOC(=O)C(COC(=O)Cc1ccc(NC(=O)c2ccccc2-c2ccc(C(F)(F)F)cc2)c(C(=O)N(C)C)c1)(C(=O)OCC)c1ccccc1", "note": "[compound of formula (I), diethyl 2-((2-(3-(dimethylcarbamoyl)-4-(4′-(trifiuoromethyl)biphenyl-2-ylcarboxamido)phenyl)acetoxy)methyl)-2-phenyl malonate]", "values": [
      {"measurement": "plasma concentrations of the compound of formula (I)", "setting": "[1]", "value": "< 3", "unit": "ng/mL"},
      {"measurement": "effects on LDL-C, HDL-C, VLDL-C, and VLDL-TG vs QD regimens", "setting": "serum lipid levels; 5 mg BID", "value": "more marked effects"},
      {"measurement": "expected postprandial increase of TG and chylomicron-TG", "setting": "serum lipid levels; healthy subjects and patients with high TG", "value": "suppressed"},
      {"measurement": "campesterol (marker of cholesterol absorption)", "setting": "serum lipid levels; in vivo", "value": "affects campesterol"},
      {"measurement": "lathosterol (marker of cholesterol synthesis by the liver)", "setting": "serum lipid levels; in vivo", "value": "not lathosterol"},
      {"measurement": "impact on triglyceride-rich lipoproteins (ApoCII, ApoCIII, VLDL-TG, VLDL-C)", "setting": "serum lipid levels; once-daily regimen", "value": "no discernible impact"},
      {"measurement": "subjects withdrawn due to adverse events", "setting": "[2]; 5 mg BID, Cohort 1", "value": 5, "unit": "subjects"},
      {"measurement": "tolerability", "setting": "[2]; 5 mg BID, HTG patients, Cohort 5", "value": "reasonably well tolerated"},
      {"measurement": "tolerability", "setting": "[2]; 5 mg BID, healthy subjects, Cohort 1", "value": "poorly tolerated; also recorded: not well tolerated"},
      {"measurement": "subjects reporting treatment-emergent adverse events", "setting": "[2]; HTG patients receiving compound, Cohort 5", "value": "88 % of treatment group"},
      {"measurement": "safety analyses (liver MRIs, tryptase, fat soluble vitamins, fecal fat)", "setting": "[2]; any cohort", "value": "no clinically relevant findings"},
      {"measurement": "subjects reporting treatment-emergent adverse events", "setting": "[2]; healthy subjects receiving compound", "value": "76 % of treatment group"},
      {"measurement": "tolerability", "setting": "[2]; healthy subjects, Cohorts 2 (5 mg QD), 3 (10 mg QD), 4 (15 mg QD), 4.1 (20 mg QD)", "value": "reasonably well-tolerated"},
      {"measurement": "fatty liver (liver MRI)", "setting": "[2]; human, in vivo", "value": "without the presence of fatty liver"},
      {"measurement": "renal function tests", "setting": "[2]; human, in vivo", "value": "did not suggest drug-related nephrotoxicity or hyperglycaemia"},
      {"measurement": "Cmin of the compound of formula (I)", "setting": "[3]", "value": "below the lower limit of quantization"},
      {"measurement": "mean change from baseline to EOT in body weight", "setting": "[4]; 1 mg BID", "value": -0.70, "unit": "kg"},
      {"measurement": "mean change from baseline to EOT in body weight", "setting": "[4]; 2.5 mg BID", "value": -1.74, "unit": "kg"},
      {"measurement": "mean change from baseline to EOT in body weight", "setting": "[4]; 3.5 mg BID", "value": -2.19, "unit": "kg"},
      {"measurement": "waist circumference, waist-hip ratio, percent body fat vs placebo", "setting": "[4]; after 12 weeks", "value": "No statistically significant differences"},
      {"measurement": "mean decreases from baseline LDL-C", "setting": "[4]; after 12 weeks, 3 compound groups", "value": "−5.90 to −8.27", "unit": "mg/dL"},
      {"measurement": "triglyceride levels", "setting": "[4]; all treatment groups", "value": "increased from baseline"},
      {"measurement": "TC and ApoB", "setting": "[4]; human, in vivo", "value": "improvements (reductions)"},
      {"measurement": "weight loss by perilipin gene mutation", "setting": "[4]; human, in vivo", "value": "no differences"},
      {"measurement": "doses at which diarrhea was observed", "setting": "[5]", "value": "≥ 60", "unit": "mg"},
      {"measurement": "caloric intake, meal weight consumed, VAS of hunger, prospective consumption, fullness, thirst, nausea", "setting": "[6]", "value": "no statistically significant treatment differences"}
    ]}
  ]
}
